Reference: patent publication US20240010634A1, “PYRIMIDINYL SULFONAMIDES AS INHIBITORS OF ACK1/TNK2 TYROSINE KINASE” (H. LEE MOFFITT CANCER CENTER AND RESEARCH INSTITUTE, INC., priority 2020, published 2024)
Values joined by “and” are separate entries in the source; they are usually repeats but may differ in a detail not shown here. Equal entries are not always repeated.

Columns and labels:
[1] = target: T1, ACK1 (Homo sapiens (Human), UniProt Q07912); assay: ACK1 IC50 (Table 1, method not described); format: biochemical
T1 sequence (Q07912 whole entry): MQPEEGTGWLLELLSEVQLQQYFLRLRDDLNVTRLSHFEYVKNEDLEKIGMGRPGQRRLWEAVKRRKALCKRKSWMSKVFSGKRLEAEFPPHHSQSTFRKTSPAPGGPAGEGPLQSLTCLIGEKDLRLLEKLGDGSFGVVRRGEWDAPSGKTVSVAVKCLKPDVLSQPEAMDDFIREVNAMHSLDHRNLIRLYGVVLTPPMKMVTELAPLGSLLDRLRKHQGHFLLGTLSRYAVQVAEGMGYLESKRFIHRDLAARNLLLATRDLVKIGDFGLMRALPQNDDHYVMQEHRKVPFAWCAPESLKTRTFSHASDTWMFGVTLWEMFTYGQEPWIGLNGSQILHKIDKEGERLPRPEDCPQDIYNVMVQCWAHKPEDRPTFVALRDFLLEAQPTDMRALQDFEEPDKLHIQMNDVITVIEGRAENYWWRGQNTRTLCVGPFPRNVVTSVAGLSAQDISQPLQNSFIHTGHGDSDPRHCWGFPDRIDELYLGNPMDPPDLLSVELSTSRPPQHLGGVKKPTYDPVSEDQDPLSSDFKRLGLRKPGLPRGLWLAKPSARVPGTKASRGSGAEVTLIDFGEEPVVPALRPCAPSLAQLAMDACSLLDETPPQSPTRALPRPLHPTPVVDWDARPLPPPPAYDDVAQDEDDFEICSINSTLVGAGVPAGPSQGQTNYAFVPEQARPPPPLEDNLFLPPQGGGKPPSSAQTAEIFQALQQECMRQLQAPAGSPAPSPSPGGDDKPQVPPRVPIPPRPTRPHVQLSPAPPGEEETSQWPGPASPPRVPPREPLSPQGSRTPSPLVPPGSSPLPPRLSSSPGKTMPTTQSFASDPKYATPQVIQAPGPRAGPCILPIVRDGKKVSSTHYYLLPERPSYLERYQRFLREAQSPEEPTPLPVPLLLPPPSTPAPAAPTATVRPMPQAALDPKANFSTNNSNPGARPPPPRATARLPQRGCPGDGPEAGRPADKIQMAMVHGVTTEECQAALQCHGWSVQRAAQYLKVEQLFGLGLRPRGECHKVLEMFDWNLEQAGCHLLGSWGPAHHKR

[2] = target: T1, ACK1; assay: Reaction Biology 33P Hotspot assay; format: biochemical
[3] = test system: MDA-MB-231; assay: Cell viability (MDA-MB-231); format: cell-based; conditions: Homo sapiens
[4] = test system: UKE1; assay: Cell viability (UKE1); format: cell-based
[5] = test system: cell line which is dependent upon ACK1; conditions: read-out: IC50, growth of a cell line dependent upon ACK1; cited from earlier work
[6] = target: T1, ACK1; conditions: cited from earlier work
[7] = test system: ACK1 autophosphorylation; conditions: heregulin-stimulated LNCaP cells; cited from earlier work
[8] = test system: AR phosphorylation of Tyr-267; conditions: heregulin-stimulated LNCaP cells; cited from earlier work

| Structure (SMILES) | IC50 [2] | also measured |
| --- | --- | --- |
| COc1cc(N2CCN(C)CC2)ccc1Nc1ncc(C)c(Nc2cccc(NS(=O)(=O)C(C)(C)C)c2)n1 [N-(3-((2-((2-methoxy-4-(4-methylpiperazin-1-yl)phenyl)amino)-5-methylpyrimidin-4-yl)amino)phenyl)-2-methylpropane-2-sulfonamide] | 21.9 nM | IC50 [1]: 34.5 nM |
| COc1cc(Nc2ncc(C)c(Nc3cccc(NS(=O)(=O)C(C)(C)C)c3)n2)ccc1-c1cnn(C)c1 [N-(3-((2-((3-methoxy-4-(1-methyl-1H-pyrazol-4-yl)phenyl)amino)-5-methylpyrimidin-4-yl)amino)phenyl)-2-methylpropane-2-sulfonamide] | 19 nM | – |
| Cc1cnc(Nc2ccc(N3CCN(C)CC3)c(OC(C)C)c2)nc1Nc1cccc(NS(=O)(=O)C(C)(C)C)c1 [N-(3-((2-((3-isopropoxy-4-(4-methylpiperazin-1-yl)phenyl)amino)-5-methylpyrimidin-4-yl)amino)phenyl)-2-methylpropane-2-sulfonamide] | 13 nM and 13.8 nM | EC50 [3]: 213 nM; EC50 [4]: 470 nM |
| CN(C)CCOc1ccc(-c2oc3ncnc(NCC4SCCS4)c3c2-c2ccccc2)cc1 [Compound 1c] | – | IC50 [5]: 5 nM; Ki [6]: 0.3 nM |
| COc1cc(-n2cccn2)ccc1Nc1ncc(C)c(Nc2cccc(NS(=O)(=O)C(C)(C)C)c2)n1 [N-(3-((2-((2-methoxy-4-(1H-pyrazol-1-yl)phenyl)amino)-5-methylpyrimidin-4-yl)amino)phenyl)-2-methylpropane-2-sulfonamide] | 19.8 nM | EC50 [3]: 11000 nM; EC50 [4]: > 10000 nM |
| CN1CCN(c2ccc(Nc3ncc(Cl)c(Nc4cccc(NS(=O)(=O)C(C)(C)C)c4)n3)c(OC3CCC3)c2)CC1 [N-(3-((5-chloro-2-((2-cyclobutoxy-4-(4-methylpiperazin-1-yl)phenyl)amino)pyrimidin-4-yl)amino)phenyl)-2-methylpropane-2-sulfonamide] | 30 nM | – |
| Cc1nc(Nc2ncc(C(=O)Nc3c(C)cccc3Cl)s2)cc(N2CCN(CCO)CC2)n1 [Dasatinib] | – | IC50 [7]: < 5 nM; IC50 [8]: < 5 nM |
| Cc1cnc(Nc2ccc(N3CCN(C)CC3)c(OC(C)C)c2)nc1Nc1ccc(NS(=O)(=O)C(C)(C)C)cc1 [N-(4-((2-((3-isopropoxy-4-(4-methylpiperazin-1-yl)phenyl)amino)-5-methylpyrimidin-4-yl)amino)phenyl)-2-methylpropane-2-sulfonamide] | 18.7 nM | – |
| COc1cc(N2CCN(C)CC2)c(F)cc1Nc1ncc(C)c(Nc2ccc(NS(C)(=O)=O)cc2)n1 [N-(4-((2-((5-fluoro-2-methoxy-4-(4-methylpiperazin-1-yl)phenyl)amino)-5-methylpyrimidin-4-yl)amino)phenyl)methanesulfonamide] | 14.8 nM | – |
| Cc1cnc(Nc2ccc(-c3cnn(C)c3)c(OC(C)C)c2)nc1Nc1cccc(NS(=O)(=O)C(C)(C)C)c1 [N-(3-((2-((3-isopropoxy-4-(1-methyl-1H-pyrazol-4-yl)phenyl)amino)-5-methylpyrimidin-4-yl)amino)phenyl)-2-methylpropane-2-sulfonamide] | 26 nM | – |
| Cc1cnc(Nc2ccc(OCC3CCOCC3)cc2)nc1Nc1cccc(NS(=O)(=O)C(C)(C)C)c1 [2-methyl-N-(3-((5-methyl-2-((4-((tetrahydro-2H-pyran-4-yl)methoxy)phenyl)amino)pyrimidin-4-yl)amino)phenyl)propane-2-sulfonamide] | 26 nM | – |
| COc1cc(Nc2ncc(C)c(Nc3ccc(NS(=O)(=O)C(C)(C)C)cc3)n2)ccc1N1CCN(C)CC1 [N-(4-((2-((3-methoxy-4-(4-methylpiperazin-1-yl)phenyl)amino)-5-methylpyrimidin-4-yl)amino)phenyl)-2-methylpropane-2-sulfonamide] | 15.9 nM | – |
| COc1cc(N2CCN(C)CC2)ccc1Nc1ncc(C)c(Nc2ccc(Cl)c(NS(=O)(=O)C(C)(C)C)c2)n1 [N-(2-chloro-5-((2-((2-methoxy-4-(4-methylpiperazin-1-yl)phenyl)amino)-5-methylpyrimidin-4-yl)amino)phenyl)-2-methylpropane-2-sulfonamide] | – | IC50 [1]: 33.2 nM |
| CC(C)Oc1cc(Nc2ncc(Cl)c(Nc3ccc(NS(=O)(=O)C(C)(C)C)cc3)n2)ccc1N1CCN(C)CC1 [N-(4-((5-chloro-2-((3-isopropoxy-4-(4-methylpiperazin-1-yl)phenyl)amino)pyrimidin-4-yl)amino)phenyl)-2-methylpropane-2-sulfonamide] | 15.5 nM | – |
| CC(C)Oc1cc(Nc2ncc(Cl)c(Nc3ccc(NS(C)(=O)=O)cc3)n2)ccc1N1CCN(C)CC1 [N-(4-((5-chloro-2-((3-isopropoxy-4-(4-methylpiperazin-1-yl)phenyl)amino)pyrimidin-4-yl)amino)phenyl)methanesulfonamide] | 26.7 nM | – |
| COc1c(Nc2ncc(C)c(Nc3cccc(NS(=O)(=O)C(C)(C)C)c3)n2)ccc(N2CCN(C)CC2)c1F [N-(3-((2-((3-fluoro-2-methoxy-4-(4-methylpiperazin-1-yl)phenyl)amino)-5-methylpyrimidin-4-yl)amino)phenyl)-2-methylpropane-2-sulfonamide] | 37.6 nM | – |
| Cc1cnc(Nc2ccc(-c3cnn(C)c3)cc2OC(C)C)nc1Nc1cccc(NS(=O)(=O)C(C)(C)C)c1 [N-(3-((2-((2-isopropoxy-4-(1-methyl-1H-pyrazol-4-yl)phenyl)amino)-5-methylpyrimidin-4-yl)amino)phenyl)-2-methylpropane-2-sulfonamide] | 149 nM | – |
| Cc1cnc(Nc2ccc(N3CCN(C)CC3)c(OC(C)C)c2)nc1Nc1ccc(Cl)c(NS(=O)(=O)C(C)(C)C)c1 [N-(2-chloro-5-((2-((3-isopropoxy-4-(4-methylpiperazin-1-yl)phenyl)amino)-5-methylpyrimidin-4-yl)amino)phenyl)-2-methylpropane-2-sulfonamide] | 14 nM | EC50 [3]: 220 nM; EC50 [4]: 850 nM |
| CC(=O)N1CCN(c2ccc(Nc3ncc(C)c(Nc4cccc(NS(=O)(=O)C(C)(C)C)c4)n3)cc2)CC1 [N-(3-((2-((4-(4-acetylpiperazin-1-yl)phenyl)amino)-5-methylpyrimidin-4-yl)amino)phenyl)-2-methylpropane-2-sulfonamide] | 15.3 nM | – |
| COc1cc(N2CCN(C)CC2)c(F)cc1Nc1ncc(C)c(Nc2cccc(NS(=O)(=O)C(C)(C)C)c2)n1 [N-(3-((2-((5-fluoro-2-methoxy-4-(4-methylpiperazin-1-yl)phenyl)amino)-5-methylpyrimidin-4-yl)amino)phenyl)-2-methylpropane-2-sulfonamide] | 16.9 nM | – |
